Source: ChEMBL document CHEMBL4837259, “Comprehensive Approach of 19F Nuclear Magnetic Resonance, Enzymatic, and In Silico Methods for Site-Specific Hit Selection and Validation of Fragment Molecules that Inhibit Methionine γ-Lyase Activity” (J Med Chem, 2021)
Calls of active or inactive are those of the source. The rule behind the calls is not given here.

What was measured:
Fusobacterium nucleatum [1] = assay: Inhibition of Fusobacterium nucleatum ATCC 25586 recombinant MGL K238A mutant expressed in Escherichia coli BL21 (DE3) assessed as decrease in signal intensity by measuring recovery ratio by 19F NMR based competition assay relative to wild type; parameters: concentration or dose not given beside the values
[2] = molecular target: T1, L-methionine gamma-lyase (Fusobacterium nucleatum subsp. nucleatum) (UniProt Q8RDT4); assay: Inhibition of Fusobacterium nucleatum ATCC 25586 recombinant wild type MGL expressed in Escherichia coli BL21 (DE3) assessed as decrease in signal intensity by 19F NMR based competition assay relative to control; parameters: concentration or dose not given beside the values
T1 sequence (whole entry): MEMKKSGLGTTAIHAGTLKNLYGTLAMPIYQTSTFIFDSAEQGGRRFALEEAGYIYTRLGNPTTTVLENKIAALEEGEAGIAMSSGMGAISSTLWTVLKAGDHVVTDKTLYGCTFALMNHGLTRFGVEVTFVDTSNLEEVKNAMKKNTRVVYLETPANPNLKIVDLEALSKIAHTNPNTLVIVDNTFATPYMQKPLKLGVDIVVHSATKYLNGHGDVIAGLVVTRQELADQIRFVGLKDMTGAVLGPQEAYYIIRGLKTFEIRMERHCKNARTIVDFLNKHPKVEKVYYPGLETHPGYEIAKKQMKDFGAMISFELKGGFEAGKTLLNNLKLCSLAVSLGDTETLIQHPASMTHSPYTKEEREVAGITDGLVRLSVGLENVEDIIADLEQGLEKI

[3] = molecular target: T1, L-methionine gamma-lyase (Fusobacterium nucleatum subsp. nucleatum); assay: Inhibition of Fusobacterium nucleatum ATCC 25586 recombinant wild type MGL expressed in Escherichia coli BL21 (DE3) assessed as formation of 2-ketobutyrate using L-methionine as substrate by enzymatic assay; parameters: concentration or dose not given beside the values; conditions: concentration not given here
Fusobacterium nucleatum [4] = assay: Inhibition of Fusobacterium nucleatum ATCC 25586 recombinant MGL Y111F mutant expressed in Escherichia coli BL21 (DE3) assessed as decrease in signal intensity by measuring recovery ratio by 19F NMR based competition assay relative to wild type; parameters: concentration or dose not given beside the values
Fusobacterium nucleatum [5] = assay: Inhibition of Fusobacterium nucleatum ATCC 25586 recombinant MGL C113S mutant expressed in Escherichia coli BL21 (DE3) assessed as decrease in signal intensity by measuring recovery ratio by 19F NMR based competition assay relative to wild type; parameters: scale not given: the % may be the effect or the level left
Fusobacterium nucleatum [6] = assay: Inhibition of Fusobacterium nucleatum ATCC 25586 recombinant MGL R373A mutant expressed in Escherichia coli BL21 (DE3) assessed as decrease in signal intensity by measuring recovery ratio by 19F NMR based competition assay relative to wild type; parameters: scale not given: the % may be the effect or the level left
Fusobacterium nucleatum [7] = assay: Inhibition of Fusobacterium nucleatum ATCC 25586 recombinant MGL R58K mutant expressed in Escherichia coli BL21 (DE3) assessed as decrease in signal intensity by measuring recovery ratio by 19F NMR based competition assay relative to wild type; parameters: scale not given: the % may be the effect or the level left
Fusobacterium nucleatum [8] = assay: Inhibition of Fusobacterium nucleatum ATCC 25586 recombinant MGL R58A mutant expressed in Escherichia coli BL21 (DE3) assessed as decrease in signal intensity by measuring recovery ratio by 19F NMR based competition assay relative to wild type; parameters: scale not given: the % may be the effect or the level left
Fusobacterium nucleatum [9] = assay: Inhibition of Fusobacterium nucleatum ATCC 25586 recombinant MGL Y56F mutant expressed in Escherichia coli BL21 (DE3) assessed as decrease in signal intensity by measuring recovery ratio by 19F NMR based competition assay relative to wild type; parameters: concentration or dose not given beside the values
Fusobacterium nucleatum [10] = assay: Inhibition of Fusobacterium nucleatum ATCC 25586 recombinant MGL R373K mutant expressed in Escherichia coli BL21 (DE3) assessed as decrease in signal intensity by measuring recovery ratio by 19F NMR based competition assay relative to wild type; parameters: concentration or dose not given beside the values

| Compound | Activity (Fusobacterium nucleatum [1]) | Activity [2] | inhibition [3] | Activity (Fusobacterium nucleatum [4]) | Activity (Fusobacterium nucleatum [5]) | Activity (Fusobacterium nucleatum [6]) | Activity (Fusobacterium nucleatum [7]) | Activity (Fusobacterium nucleatum [8]) | Activity (Fusobacterium nucleatum [9]) | Activity (Fusobacterium nucleatum [10]) |
| --- | --- | --- | --- | --- | --- | --- | --- | --- | --- | --- |
| CC(C)(CC(=O)O)c1ccc(C(F)(F)F)cc1 | 50% | 62% | 11.3% | 80% | Active | 50% | 80% | 80% | 80% | Active |
| CCOC(=O)c1nc(-c2ccccc2F)no1 | Active | 82% | 13.3% | 50% | Active | 80% | 50% | 50% | 80% | Active |
| O=C(O)c1cncc(OCC(F)(F)F)c1 | Active | 35% | 9.1% | 50% | inactive | 50% | 80% | 80% | 80% | Active |
| O=C(O)c1cc(F)c(OCC2CC2)c(F)c1 | Active | 77% | 9.5% | 80% | Active | 80% | 50% | 80% | 80% | Active |
| Cc1ccc2[nH]cc(C(C(=O)O)C(F)(F)F)c2c1 (stereo not given) | Active | 48% | 9.3% | 80% | inactive | 50% | 80% | 80% | 80% | Active |
| O=C(O)c1cnn(-c2ccc(F)cc2)c1 | 50% | 69% | -0.6% | 80% | Active | 80% | 50% | 80% | 80% | Active |
| CC(C)(C)OC(=O)N1CCC(CN)(Cc2ccccc2C(F)(F)F)CC1 | Active | 85% | 56.5% | Active | 80% | Active | 80% | 50% | 80% | Active |
| CC(C)(Cc1cccc(C(F)(F)F)c1)C(=O)O | 50% | 64% | 27.5% | 50% | Active | 80% | 80% | 80% | 80% | Active |
| O=C(O)c1cc(OC(F)(F)F)ccn1 | Active | 4% | -6.8% | 50% | Active | 80% | 80% | 80% | 80% | Active |
| O=C(O)c1cc(C(F)(F)F)nn1-c1ccccc1 | Active | 49% | 23.9% | 80% | 50% | 50% | 80% | 80% | 80% | Active |
| CC(C)(C)OC(=O)N1CCC(CN)(c2ccccc2C(F)(F)F)CC1 | 50% | 75% | 41% | Active | 50% | Active | 80% | Active | 80% | Active |
| CC(C)(C)OC(=O)N1CCC(CN)(Cc2ccccc2F)CC1 | inactive | 63% | 30.1% | inactive | 80% | inactive | 50% | Active | 80% | Active |
